Data from PMC8848768, “Synthesis and evaluation of potent yaku'amide A analogs” (Chemical Science, 2022).
Numbered stars: 1 amine (or outer) side, 2 acyl side, 3 side chain; on linkers, the order of the positions; unused ones are H or OH. Square brackets hold non-standard residues; d marks the D form. Peptide text beside a SMILES is read from it. * marks the point of attachment. Heptanoyl(3-oxo-2,2,4S,6-Me) = CC(C)C[C@H](C)C(=O)C(C)(C)C(=O)*; NH((S)-1-NMe2-3-Me-but-2-yl) = CC(C)[C@@H](CN(C)C)N*; Ile(3R-OH) = CC[C@@](C)(O)[C@H](N)C(=O)O; dVal(3-OH) = CC(C)(O)[C@@H](N)C(=O)O; d(aIle) = CC[C@H](C)[C@@H](N)C(=O)O; Val(3-OH) = CC(C)(O)[C@H](N)C(=O)O; X1 = CCC(CC)=C(N[*:1])C(=O)[*:2]; ΔVal = CC(C)=C(N)C(=O)O

Columns and labels:
SNUC1 = assay: cells; settings: read-out: Aver IC50, SNUC1; SNUC1 (Colon Carcinoma); MTS, 72 hours, 37 °C, 5% CO2, 384-well; n>2 independent studies (in duplicate)
Protocol: (§1) The antiproliferative activity profiles of 1a, its full-length analogs 2a and 2b, and its partial structures (23, 24, 26, and 30) were determined by in vitro screening in 72 hours MTS cell proliferation assays against a panel of 18 different human cancer cell lines. […] The three peptides were also evaluated for their antiproliferative activity against the lung fibroblast MRC5 cell line.
(§2) Cells (40 µ L) are added into individual wells of a 384-well black/clear bottom plate on day zero at concentrations enabling continuous log growth over the course of the assay. On day one, compounds (or DMSO) are transferred using an ATS-liquid handler (100 nL per well) to individual wells containing cells and the cells are treated for 72 hours (37 °C, 5% CO 2) prior to measuring proliferation using MTS reagent following manufacturer’s instructions. Net OD values are determined by subtracting the average OD values of cells (measured on day 1, T = 0) from average total OD value of cells (measured on day 4, T = 72h). IC 50 values are calculated using proprietary software (IC 50 values normalized against all compounds). Results represent n>2 independent studies (in duplicate).
(§3) Table S1. Antiproliferative Data of Compounds 1a, 2a, 2b, 23, 24, 26, and 30.
(§4) Table S2. Human Cell Line Descriptions.
(§5) Human Cell Line* Description
(§6) *All cells were obtained from ATCC and are authenticated

HL60 = assay: cells; settings: read-out: Aver IC50, HL60; HL60 (Leukema - Promyelocytic); MTS, 72 hours, 37 °C, 5% CO2, 384-well; n>2 independent studies (in duplicate)
Protocol: as §1, §2, §3, §4, §5, §6

NCIH1048 = assay: cells; settings: read-out: Aver IC50, NCIH1048; NCIH1048 (Lung - SCLC); MTS, 72 hours, 37 °C, 5% CO2, 384-well; n>2 independent studies (in duplicate)
Protocol: as §1, §2, §3, §4, §5, §6

THP1 = assay: cells; settings: read-out: Aver IC50, THP1; THP1 (Acute Monocytic Leukemia); MTS, 72 hours, 37 °C, 5% CO2, 384-well; n>2 independent studies (in duplicate)
Protocol: as §1, §2, §3, §4, §5, §6

[1] = system: lung fibroblast MRC5 cell line; assay: cells; settings: read-out: Aver IC50, MRC5; MRC5 (Lung Fibroblast, noncancerous); MTS, 72 hours, 37 °C, 5% CO2, 384-well; n>2 independent studies (in duplicate)
Protocol: as §1, §2, §3, §4, §5, §6

PANC1005 = assay: cells; settings: read-out: Aver IC50, PANC1005; PANC1005 (Pancreatic - Adenocarcinoma); MTS, 72 hours, 37 °C, 5% CO2, 384-well; n>2 independent studies (in duplicate)
Protocol: as §1, §2, §3, §4, §5, §6

MV411 = assay: cells; settings: read-out: Aver IC50, MV411; MV411 (Acute Myeloid Leukemia); MTS, 72 hours, 37 °C, 5% CO2, 384-well; n>2 independent studies (in duplicate)
Protocol: as §1, §2, §3, §4, §5, §6

COLO678 = assay: cells; settings: read-out: Aver IC50, COLO678; COLO678 (Colon Carcinoma); MTS, 72 hours, 37 °C, 5% CO2, 384-well; n>2 independent studies (in duplicate)
Protocol: as §1, §2, §3, §4, §5, §6

RAMOS = assay: cells; settings: read-out: Aver IC50, RAMOS; RAMOS (Burkitt's lymphoma); MTS, 72 hours, 37 °C, 5% CO2, 384-well; n>2 independent studies (in duplicate)
Protocol: as §1, §2, §3, §4, §5, §6

U937 = assay: cells; settings: read-out: Aver IC50, U937; U937 (Pro-monocytic, Human Myeloid Leukemia); MTS, 72 hours, 37 °C, 5% CO2, 384-well; n>2 independent studies (in duplicate)
Protocol: as §1, §2, §3, §4, §5, §6

A375 = assay: cells; settings: read-out: Aver IC50, A375; A375 (Malignant Melanoma); MTS, 72 hours, 37 °C, 5% CO2, 384-well; n>2 independent studies (in duplicate)
Protocol: as §1, §2, §3, §4, §5, §6

CALU6 = assay: cells; settings: read-out: Aver IC50, CALU6; CALU6 (Lung - Adenocarcinoma); MTS, 72 hours, 37 °C, 5% CO2, 384-well; n>2 independent studies (in duplicate)
Protocol: as §1, §2, §3, §4, §5, §6

OVCAR3 = assay: cells; settings: read-out: Aver IC50, OVCAR3; OVCAR3 (Ovary - Adenocarcinoma); MTS, 72 hours, 37 °C, 5% CO2, 384-well; n>2 independent studies (in duplicate)
Protocol: as §1, §2, §3, §4, §5, §6

JURKAT = assay: cells; settings: read-out: Aver IC50, JURKAT; JURKAT (acute T-cell leukemia); MTS, 72 hours, 37 °C, 5% CO2, 384-well; n>2 independent studies (in duplicate)
Protocol: as §1, §2, §3, §4, §5, §6

HCT116 = assay: cells; settings: read-out: Aver IC50, HCT116; HCT116 (Colon Carcinoma); MTS, 72 hours, 37 °C, 5% CO2, 384-well; n>2 independent studies (in duplicate)
Protocol: as §1, §2, §3, §4, §5, §6

BXPC3 = assay: cells; settings: read-out: Aver IC50, BXPC3; BXPC3 (Pancreatic - Adenocarcinoma); MTS, 72 hours, 37 °C, 5% CO2, 384-well; n>2 independent studies (in duplicate)
Protocol: as §1, §2, §3, §4, §5, §6

HT29 = assay: cells; settings: read-out: Aver IC50, HT29; HT29 (Colon Carcinoma); MTS, 72 hours, 37 °C, 5% CO2, 384-well; n>2 independent studies (in duplicate)
Protocol: as §1, §2, §3, §4, §5, §6

A549 = assay: cells; settings: read-out: Aver IC50, A549; A549 (Lung - NSCLC); MTS, 72 hours, 37 °C, 5% CO2, 384-well; n>2 independent studies (in duplicate)
Protocol: as §1, §2, §3, §4, §5, §6

[2] = system: P388 murine leukemia cells; settings: cited from earlier work
Text: The linear peptide yaku'amide A (1a, Fig. 1) was isolated by Matsunaga and co-workers from the deep-sea sponge Ceratopsion sp.[1] It contains several unusual β-tert-hydroxy amino acids (β-OHAAs) and tetrasubstituted dehydroamino acids (ΔAAs).

MCF7 = MCF7 (Breast Carcinoma), MTS, 72 hours, 37 °C, 5% CO2, 384-well, n>2 independent studies (in duplicate); for IC50: read-out: Aver IC50, MCF7
Protocol: as §1, §2, §3, §4, §5, §6

[3] = system: panel of 18 different human cancer cell lines; assay: 72 h MTS cell proliferation assays, panel of cancer cell lines; type: cell-based; settings: against most of the cell lines, ca.
Protocol: as §1, §2, §3, §4, §5, §6

Row | Compound | IC50 (SNUC1) [nM] | IC50 (HL60) [nM] | IC50 (NCIH1048) [nM] | IC50 (THP1) [nM] | IC50 [1] [nM] | IC50 (PANC1005) [nM] | IC50 (MV411) [nM] | IC50 (COLO678) [nM] | IC50 (RAMOS) [nM] | IC50 (U937) [nM] | IC50 (A375) [nM] | IC50 (CALU6) [nM] | IC50 (OVCAR3) [nM] | IC50 (JURKAT) [nM] | IC50 (HCT116) [nM] | IC50 (BXPC3) [nM] | IC50 (HT29) [nM] | IC50 (A549) [nM] | IC50 (MCF7) [nM] | other results
1 | yaku'amide A [Compound 1a, reference compound] | 129 | 578 | 3110 | 9290 | 14500 | 2830 | 119 | 2690 | 975 | 1210 | 2140 | 2220 | 227 | 4950 | 1740 | 3820 | 2890 | 108 | 125 | IC50, growth inhibition of P388 murine leukemia cells [2]: 0.014 µg/mL; Aver IC50, MCF7 (MCF7): potent
2 | CCC(CC)=C(NC(=O)[C@@H](NC(=O)C(C)(C)C(=O)[C@@H](C)CC(C)C)[C@](C)(O)CC)C(=O)NCC(=O)NC(C(=O)N[C@@H](C(=O)N[C@@H](C(=O)N[C@@H](C(=O)N[C@H](C(=O)NC(C(=O)N[C@H](C)C(=O)N[C@@H](C(=O)N[C@H](C(=O)NC(C(=O)N[C@H](CN(C)C)C(C)C)=C(C)C)C(C)C)C(C)C)=C(C)C)C(C)(C)O)C(C)(C)O)[C@@H](C)CC)C(C)C)=C(C)C [Compound 2a] ({Heptanoyl(3-oxo-2,2,4S,6-Me)}-[Ile(3R-OH)][X1]G[ΔVal][dV][d(aIle)][dVal(3-OH)][Val(3-OH)][ΔVal][dA][dV]V[ΔVal]-{NH((S)-1-NMe2-3-Me-but-2-yl)}) | 34.4 | 370 | 1310 | 9190 | 5470 | 1970 | 20.8 | 2010 | 362 | 435 | 1510 | 578 | 81.4 | 4210 | 1130 | 3900 | 2270 | 86.5 | 13000 | Increased potency compared to 2b [3]: 2–4 fold
3 | CCC(CC)=C(NC(=O)CNC(=O)C(NC(=O)[C@@H](NC(=O)C(C)(C)C(=O)[C@@H](C)CC(C)C)[C@](C)(O)CC)=C(C)C)C(=O)N[C@@H](C(=O)NCCN(C)C)C(C)C [Compound 26] | > 25000 | > 25000 | > 25000 | > 25000 | > 25000 | > 25000 | > 25000 | > 25000 | > 25000 | > 25000 | > 25000 | > 25000 | > 25000 | > 25000 | > 25000 | > 25000 | > 25000 | > 25000 | 6340 | –
